This is an account of results in PMC8979054 (RSC Advances, 2022).

Molecules are shown by their SMILES. Read-outs that look alike come from different tables or passages of the source.

The subject of one assay is XO. The note with it: cited from earlier work; for IC50: XO inhibition.
For assay [1], the target named is T1, xanthine oxidase (Bos taurus, UniProt P80457). The experiment in a line: Fixed-ratio combination analysis on XO. The note with it: for EC90: read-out: EC90 dose; for DRI: in techtochrysin + allopurinol combination.
The target in assay [2] is T1, xanthine oxidase. Nature of the assay: In vitro xanthine oxidase inhibitory assay. In kind it is biochemical, bovine.
The mark [3] stands for this setting: Dm (median-effect dose), antilog of x-intercept of median-effect plot, CompuSyn.
Setting [4] is: EC50 dose, single agent, dose for 50% inhibition of XO activity.
Setting [5] is: single agent, dose for 10% inhibition of XO activity.
Setting [6] is: single agent, dose for 30% inhibition of XO activity.
[7] abbreviates: single agent, dose for 70% inhibition of XO activity.

T1 sequence (P80457 whole entry): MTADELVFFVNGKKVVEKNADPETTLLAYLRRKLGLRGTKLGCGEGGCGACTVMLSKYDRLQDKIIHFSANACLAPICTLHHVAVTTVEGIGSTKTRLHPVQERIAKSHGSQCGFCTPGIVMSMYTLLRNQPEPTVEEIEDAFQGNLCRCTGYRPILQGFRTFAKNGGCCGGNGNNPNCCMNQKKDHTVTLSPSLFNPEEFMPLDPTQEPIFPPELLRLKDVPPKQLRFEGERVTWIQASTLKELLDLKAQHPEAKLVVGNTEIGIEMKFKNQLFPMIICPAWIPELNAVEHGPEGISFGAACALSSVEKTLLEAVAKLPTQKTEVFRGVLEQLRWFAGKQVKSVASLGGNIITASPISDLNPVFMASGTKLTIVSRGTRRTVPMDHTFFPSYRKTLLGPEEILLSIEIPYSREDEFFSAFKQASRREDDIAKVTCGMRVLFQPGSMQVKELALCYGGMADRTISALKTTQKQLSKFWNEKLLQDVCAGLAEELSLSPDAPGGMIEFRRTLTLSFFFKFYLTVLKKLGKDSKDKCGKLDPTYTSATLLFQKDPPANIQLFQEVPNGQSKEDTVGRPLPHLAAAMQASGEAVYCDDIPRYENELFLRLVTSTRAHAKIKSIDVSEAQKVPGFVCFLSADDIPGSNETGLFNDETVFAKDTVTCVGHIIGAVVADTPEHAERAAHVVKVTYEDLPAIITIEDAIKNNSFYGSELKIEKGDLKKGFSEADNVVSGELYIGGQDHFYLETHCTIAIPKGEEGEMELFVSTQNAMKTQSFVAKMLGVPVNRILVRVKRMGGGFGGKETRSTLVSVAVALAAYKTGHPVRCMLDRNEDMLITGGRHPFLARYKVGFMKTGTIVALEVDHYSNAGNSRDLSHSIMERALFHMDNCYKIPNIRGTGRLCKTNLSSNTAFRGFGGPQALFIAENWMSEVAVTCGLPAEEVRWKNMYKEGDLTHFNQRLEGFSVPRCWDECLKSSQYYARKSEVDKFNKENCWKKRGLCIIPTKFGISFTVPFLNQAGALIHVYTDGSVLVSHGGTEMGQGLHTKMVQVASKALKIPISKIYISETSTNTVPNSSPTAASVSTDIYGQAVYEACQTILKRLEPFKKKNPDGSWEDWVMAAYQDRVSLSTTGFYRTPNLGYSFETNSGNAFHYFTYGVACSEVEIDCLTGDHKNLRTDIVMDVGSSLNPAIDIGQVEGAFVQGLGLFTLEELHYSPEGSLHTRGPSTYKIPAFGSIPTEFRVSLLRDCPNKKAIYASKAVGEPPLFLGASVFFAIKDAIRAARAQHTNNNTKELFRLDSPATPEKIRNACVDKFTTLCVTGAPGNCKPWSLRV

Broadly, the IC50 is the midpoint of a concentration-inhibition curve. The EC90 is the concentration needed for an effect of 90%. For the compound `Oc1ncnc2[nH]ncc12` [Allopurinol, allopurinol, reference compound], in the assay with XO, the concentration for half-maximal inhibition (IC50) was 13200 nM. Besides, at xanthine oxidase [1], the EC10 dose was 180 nM, the EC30 dose worked out at 420 nM, the EC70 dose was found to be 1840 nM and the “m (slope of the median-effect plot)” value is recorded as 1.44. For the same compound, the EC90 at xanthine oxidase [1] is 4050 nM.
In the case of `O=c1cc(-c2ccc(O)cc2)oc2cc(O)cc(O)c12` [Apigenin, apigenin], in the assay on XO, the concentration for half-maximal inhibition (IC50) was 6330 nM and the “type of XO inhibition” value was “competitive”.
In the case of `Cc1nc(-c2ccc(OCC(C)C)c(C#N)c2)sc1C(=O)O` [Febuxostat, febuxostat, reference compound], on xanthine oxidase [1], the EC10 dose was determined as 5 nM, the EC30 dose amounted to 15 nM, the EC70 dose is 40 nM and the “m (slope of the median-effect plot)” value was 1.57. Moreover, on xanthine oxidase [1], the EC90 was determined as 120 nM.
Take `O=c1c(O)c(-c2ccccc2)oc2cc(O)cc(O)c12` [Galangin, galangin]: in the assay on XO, the “type of XO inhibition” value is “competitive”.
Consider `O=c1cc(-c2ccc(O)c(O)c2)oc2cc(O)cc(O)c12` [Luteolin, luteolin], for which it took 1680 nM to reach half-maximal inhibition on xanthine oxidase [2] (IC50). Moreover, in the assay on XO, the IC50 was 8210 nM and the “type of XO inhibition” value is “competitive”.
As to `O=C1c2c(O)cc(O)cc2O[C@H](c2ccccc2)[C@H]1O` [Pinobanksin, pinobanksin], in the assay on XO, the “type of XO inhibition” value is recorded as “competitive”.
Consider `O=c1c(O)c(-c2ccc(O)c(O)c2)oc2cc(O)cc(O)c12` [Quercetin, quercetin], for which, in the assay with XO, the concentration for half-maximal inhibition (IC50) is 2920 nM and the “type of XO inhibition” value is “mixed-type”.
Usually EC50 stands for the concentration giving half of the maximal effect. The compound `O=C(/C=C/c1ccc(O)c(O)c1)O[C@H](Cc1ccc(O)c(O)c1)C(=O)O` [Rosmarinic acid, rosmarinic acid] registered an IC50 at xanthine oxidase [2] of 970 nM. Besides, the “m (slope of the median-effect plot)” value on xanthine oxidase [1] (CompuSyn) is given as 1.78. For the same compound, the EC50 at xanthine oxidase [1] (setting [3]) was 1040 nM; at xanthine oxidase [1] (setting [4]), 970 nM. Moreover, the “Dose of each drug alone required for the same effect” value (“Dose of each drug alone required” below) is 0.32 µM at xanthine oxidase [1] (Fa 16%, rosmarinic acid/allopurinol analysis); 0.72 µM on xanthine oxidase [1] (Fa 34%, rosmarinic acid/allopurinol analysis); 0.87 µM on xanthine oxidase [1] (Fa 42%, rosmarinic acid/febuxostat analysis); 1.78 µM at xanthine oxidase [1] (Fa 66%, rosmarinic acid/febuxostat analysis); 2.06 µM on xanthine oxidase [1] (Fa 69%, rosmarinic acid/allopurinol analysis); 2.35 µM on xanthine oxidase [1] (Fa 74%, rosmarinic acid/febuxostat analysis). The “Dose of each drug alone required” value on xanthine oxidase [1] (Fa 82%, rosmarinic acid/febuxostat analysis) was 3.42 µM; at xanthine oxidase [1] (Fa 92%, rosmarinic acid/febuxostat analysis), 6.21 µM; at xanthine oxidase [1] (Fa 93%, rosmarinic acid/allopurinol analysis) it was 8.35 µM; on xanthine oxidase [1] (Fa 98%, rosmarinic acid/allopurinol analysis), 21.32 µM. The EC90 at xanthine oxidase [1] is 5220 nM. For the same compound, the EC10 dose at xanthine oxidase [1] (setting [5]) came to 260 nM. The EC30 dose on xanthine oxidase [1] (setting [6]) is 480 nM. On xanthine oxidase [1] (setting [7]), the EC70 dose was found to be 2440 nM.
As to `COc1cc(O)c2c(=O)cc(-c3ccccc3)oc2c1` [Techtochrysin, techtochrysin], the IC50 on xanthine oxidase [2] stood at 84 nM. For the same compound, the “fold enhancement in XO inhibitory activity compared with allopurinol” value on xanthine oxidase [2] (from IC50 values of Table 5) turned out to be 10 folds. Also, the “m (slope of the median-effect plot)” value on xanthine oxidase [1] (CompuSyn) is recorded as 1.73. Besides, the results for the EC50 on xanthine oxidase [1] (setting [3]) and on xanthine oxidase [1] (setting [4]) were 81 nM and 84 nM, respectively. For the same compound, the “Dose of each drug alone required” value at xanthine oxidase [1] (Fa 19%, techtochrysin/allopurinol analysis) was 0.031 µM; at xanthine oxidase [1] (Fa 35%, techtochrysin/allopurinol analysis) it was 0.064 µM; at xanthine oxidase [1] (Fa 53%, techtochrysin/febuxostat analysis), 0.11 µM; at xanthine oxidase [1] (Fa 57%, techtochrysin/allopurinol analysis) it was 0.15 µM; on xanthine oxidase [1] (Fa 69%, techtochrysin/febuxostat analysis), 0.20 µM; on xanthine oxidase [1] (Fa 75%, techtochrysin/febuxostat analysis), 0.25 µM. Further, the “Dose of each drug alone required” value at xanthine oxidase [1] (Fa 84%, techtochrysin/febuxostat analysis) worked out at 0.39 µM; at xanthine oxidase [1] (Fa 91%, techtochrysin/allopurinol analysis), 0.98 µM; at xanthine oxidase [1] (Fa 94%, techtochrysin/febuxostat analysis) it was 0.96 µM; at xanthine oxidase [1] (Fa 97%, techtochrysin/allopurinol analysis) it was 3.19 µM. The DRI at xanthine oxidase [1] (Fa […]% (70% effect level doses)) is listed as 3.51 fold; on xanthine oxidase [1] (Fa […]% (90% effect level doses)) it was 3.63 fold. Besides, the EC90 at xanthine oxidase [1] was 880 nM. At xanthine oxidase [1] (setting [5]), the EC10 dose came out at 24 nM. The EC30 dose on xanthine oxidase [1] (setting [6]) worked out at 46 nM. Also, the EC70 dose on xanthine oxidase [1] (setting [7]) came out at 280 nM.
